Test results from ChEMBL document CHEMBL1145006 (J Med Chem, 2003).
Starred links: 1 amine or outer side, 2 acyl side, 3 side chain; linkers in the order of their positions; H or OH if unused. Positions of bridges follow the written chain, without caps; N, C: chain ends. Non-standard residues stand in square brackets, D forms with d. Residues, ends and D or L forms follow the SMILES beside them. Groups on a side chain read outwards from the residue. *: point of attachment. Ethylenediamine = C(CN[*:2])N[*:1]; Hyp = O=C(O)[C@@H]1C[C@@H](O)CN1; Phg = N[C@H](C(=O)O)c1ccccc1; CO = O=C([*:1])[*:2]; Bn = c1ccc(C*)cc1

Tests used:
[1] = target: Somatostatin receptor type 1 (Homo sapiens, UniProt P30872); assay: Binding affinity towards human Somatostatin receptor type 1 (sst1) using Tyr11-[125I]-SRIF as radioligand was determined in CHO cells; format: cell-based
Chain of Somatostatin receptor type 1 (P30872 whole entry): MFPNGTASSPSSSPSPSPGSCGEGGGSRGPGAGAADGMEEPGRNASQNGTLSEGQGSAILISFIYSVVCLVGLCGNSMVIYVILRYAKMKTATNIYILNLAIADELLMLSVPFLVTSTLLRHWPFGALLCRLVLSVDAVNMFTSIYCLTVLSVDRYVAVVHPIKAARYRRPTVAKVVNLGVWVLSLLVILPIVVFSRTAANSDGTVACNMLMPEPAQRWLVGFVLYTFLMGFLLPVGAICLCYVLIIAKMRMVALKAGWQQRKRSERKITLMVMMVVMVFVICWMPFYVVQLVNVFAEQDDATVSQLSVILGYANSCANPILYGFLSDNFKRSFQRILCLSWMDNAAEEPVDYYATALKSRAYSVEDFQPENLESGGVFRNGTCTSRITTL

[2] = species on record: Rattus norvegicus; assay: In vitro inhibition of GHRH induced GH release in primary cultures of rat pituitary cells; format: functional, cell-based; conditions: Pituitary gland cell
[3] = target: Somatostatin receptor type 3 (Homo sapiens, UniProt P32745); assay: Binding affinity towards human Somatostatin receptor type 3 (sst3) using Tyr11-[125I]-SRIF as radioligand was determined in CHO cells; format: cell-based
Chain of Somatostatin receptor type 3 (P32745 whole entry): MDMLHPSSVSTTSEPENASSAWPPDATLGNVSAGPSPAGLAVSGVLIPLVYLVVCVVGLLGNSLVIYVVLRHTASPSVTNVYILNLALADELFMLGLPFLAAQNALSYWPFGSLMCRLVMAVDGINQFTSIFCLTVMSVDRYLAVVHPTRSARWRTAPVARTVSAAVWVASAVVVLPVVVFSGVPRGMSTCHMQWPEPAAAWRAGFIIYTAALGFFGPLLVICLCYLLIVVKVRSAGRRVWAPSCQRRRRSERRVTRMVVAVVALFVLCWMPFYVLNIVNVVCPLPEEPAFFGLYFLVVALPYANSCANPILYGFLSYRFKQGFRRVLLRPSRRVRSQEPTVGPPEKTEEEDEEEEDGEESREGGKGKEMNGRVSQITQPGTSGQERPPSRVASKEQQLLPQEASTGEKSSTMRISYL

[4] = target: Somatostatin receptor type 4 (Homo sapiens, UniProt P31391); assay: Binding affinity towards human Somatostatin receptor type 4 (sst4) using Tyr11-[125I]-SRIF as radioligand was determined in CHO cells; format: cell-based; conditions: for Log Ki: cho
Chain of Somatostatin receptor type 4 (P31391 whole entry): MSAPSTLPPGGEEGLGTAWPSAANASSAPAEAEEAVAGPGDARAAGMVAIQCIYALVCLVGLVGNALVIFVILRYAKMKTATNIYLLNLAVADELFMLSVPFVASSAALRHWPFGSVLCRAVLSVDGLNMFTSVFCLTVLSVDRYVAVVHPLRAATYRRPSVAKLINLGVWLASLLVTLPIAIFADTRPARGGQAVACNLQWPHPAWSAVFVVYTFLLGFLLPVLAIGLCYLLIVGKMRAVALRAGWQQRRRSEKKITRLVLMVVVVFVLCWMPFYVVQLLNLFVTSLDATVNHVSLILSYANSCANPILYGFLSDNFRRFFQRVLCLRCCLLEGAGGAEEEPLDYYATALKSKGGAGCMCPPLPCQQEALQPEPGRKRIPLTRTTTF

[5] = target: Somatostatin receptor type 5 (Homo sapiens, UniProt P35346); assay: Binding affinity towards human Somatostatin receptor type 5 (sst5) using Tyr11-[125I]-SRIF as radioligand was determined in COS cell; format: cell-based
Chain of Somatostatin receptor type 5 (P35346 whole entry): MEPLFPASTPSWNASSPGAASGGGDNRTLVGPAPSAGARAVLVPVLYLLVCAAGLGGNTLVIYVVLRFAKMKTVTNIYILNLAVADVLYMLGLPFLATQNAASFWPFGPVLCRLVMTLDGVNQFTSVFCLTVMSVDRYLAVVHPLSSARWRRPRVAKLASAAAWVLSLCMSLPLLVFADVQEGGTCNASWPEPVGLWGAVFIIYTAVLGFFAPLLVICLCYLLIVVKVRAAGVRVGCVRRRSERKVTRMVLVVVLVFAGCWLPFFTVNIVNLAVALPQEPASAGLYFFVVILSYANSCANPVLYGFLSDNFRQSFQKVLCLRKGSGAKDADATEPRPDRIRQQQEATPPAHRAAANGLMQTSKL

[6] = target: Somatostatin receptor type 2 (Homo sapiens, UniProt P30874); assay: Binding affinity towards human Somatostatin receptor type 2 (sst2) using Tyr11-[125I]-SRIF as radioligand was determined in CHO cells; format: cell-based
Chain of Somatostatin receptor type 2 (P30874 whole entry): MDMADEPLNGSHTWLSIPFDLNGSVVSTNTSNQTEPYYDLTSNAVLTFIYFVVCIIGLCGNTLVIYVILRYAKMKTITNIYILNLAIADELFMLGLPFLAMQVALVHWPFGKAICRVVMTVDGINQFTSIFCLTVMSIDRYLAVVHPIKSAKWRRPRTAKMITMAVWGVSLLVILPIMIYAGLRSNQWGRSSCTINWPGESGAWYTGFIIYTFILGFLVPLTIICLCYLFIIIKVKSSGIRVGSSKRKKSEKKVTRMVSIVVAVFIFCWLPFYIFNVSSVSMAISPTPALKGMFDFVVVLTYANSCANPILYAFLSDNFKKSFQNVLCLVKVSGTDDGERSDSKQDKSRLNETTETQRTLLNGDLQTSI

Compound | Ki [1] [nM] | IC50 [2] [nM] | Ki [3] [nM] | Log Ki [4] | Ki [5] [nM] | Ki [6] [nM] | Ki [4] [nM]
NCCCC[C@@H]1NC(=O)[C@@H](Cc2c[nH]c3ccccc23)NC(=O)[C@H](c2ccccc2)NC(=O)[C@@H]2C[C@@H](OC(=O)NCCN)CN2C(=O)[C@H](Cc2ccccc2)NC(=O)[C@H](Cc2ccc(OCc3ccccc3)cc2)NC1=O [PASIREOTIDE] (cyclo(F[Hyp]([CO-Ethylenediamine])[Phg][dW]KY(Bn))) | 6.31 | 0.4 | 0.794 | > -7 | 0.126 | 1 | –
C[C@H](N)C(=O)NCC(=O)N[C@H]1CSSC[C@@H](C(N)=O)NC(=O)[C@H](CO)NC(=O)[C@H]([C@@H](C)O)NC(=O)[C@H](Cc2ccccc2)NC(=O)[C@H]([C@@H](C)O)NC(=O)[C@H](CCCCN)NC(=O)[C@H](Cc2c[nH]c3ccccc23)NC(=O)[C@H](C)NC(=O)[C@H](Cc2ccccc2)NC(=O)[C@H](CC(N)=O)NC(=O)[C@H](CCCCN)NC1=O (H-AGCKNFAWKTFTSC-NH2; disulfide 3-14) | 20 | – | 25.1 | > -8.7 | 79.4 | 20 | –
C[C@H](N)C(=O)NCC(=O)N[C@H]1CSSC[C@@H](C(N)=O)NC(=O)[C@H](CO)NC(=O)[C@H]([C@@H](C)O)NC(=O)[C@H](Cc2ccccc2)NC(=O)[C@H]([C@@H](C)O)NC(=O)[C@H](CCCCN)NC(=O)[C@H](Cc2c[nH]c3ccccc23)NC(=O)[C@H](Cc2ccccc2)NC(=O)[C@H](Cc2ccccc2)NC(=O)[C@H](CC(N)=O)NC(=O)[C@H](C)NC1=O (H-AGCANFFWKTFTSC-NH2; disulfide 3-14) | 0.794 | – | 2.51 | > -9.5 | 1 | 0.501 | –
C[C@H](N)C(=O)NCC(=O)N[C@H]1CSSC[C@@H](C(N)=O)NC(=O)[C@H](CO)NC(=O)[C@H]([C@@H](C)O)NC(=O)[C@H](Cc2ccccc2)NC(=O)[C@H]([C@@H](C)O)NC(=O)[C@H](CCCCN)NC(=O)[C@H](Cc2c[nH]c3ccccc23)NC(=O)[C@H](Cc2ccccc2)NC(=O)[C@H](Cc2ccccc2)NC(=O)[C@H](C)NC(=O)[C@H](CCCCN)NC1=O (H-AGCKAFFWKTFTSC-NH2; disulfide 3-14) | 0.251 | – | 0.631 | > -9.7 | 0.158 | 0.126 | –
NCCCC[C@@H]1NC(=O)[C@@H](Cc2c[nH]c3ccccc23)NC(=O)[C@H](CCCN=C(N)N)NC(=O)[C@@H]2C[C@@H](OC(=O)NCCN)CN2C(=O)[C@H](Cc2ccccc2)NC(=O)[C@H](Cc2ccc(OCc3ccccc3)cc2)NC1=O | 6.31 | – | 20 | – | 0.398 | 10 | 316
C[C@H](N)C(=O)NCC(=O)N[C@H]1CSSC[C@@H](C(N)=O)NC(=O)[C@H](CO)NC(=O)[C@H]([C@@H](C)O)NC(=O)[C@H](C)NC(=O)[C@H]([C@@H](C)O)NC(=O)[C@H](CCCCN)NC(=O)[C@H](Cc2c[nH]c3ccccc23)NC(=O)[C@H](Cc2ccccc2)NC(=O)[C@H](Cc2ccccc2)NC(=O)[C@H](CC(N)=O)NC(=O)[C@H](CCCCN)NC1=O (H-AGCKNFFWKTATSC-NH2; disulfide 3-14) | 0.631 | – | 7.94 | > -9 | 6.31 | 6.31 | –
NCCCC[C@@H]1NC(=O)[C@@H](Cc2c[nH]c3ccccc23)NC(=O)[C@H](Cc2ccccc2)NC(=O)[C@@H]2C[C@@H](OC(=O)NCCN)CN2C(=O)[C@H](Cc2ccccc2)NC(=O)[C@H](Cc2ccc(OCc3ccccc3)cc2)NC1=O (cyclo(F[Hyp]([CO-Ethylenediamine])F[dW]KY(Bn))) | 3.98 | – | 0.794 | – | 0.398 | 2 | 501
NCCCC[C@@H]1NC(=O)[C@@H](Cc2c[nH]c3ccccc23)NC(=O)[C@H](Cc2ccccc2)NC(=O)[C@@H]2C[C@@H](O)CN2C(=O)[C@H](Cc2ccccc2)NC(=O)[C@H](Cc2ccc(OCc3ccccc3)cc2)NC1=O (cyclo(F[Hyp]F[dW]KY(Bn))) | 63.1 | – | 1.58 | – | 0.316 | 0.794 | 316
